Columns and labels:
[1] = Brain tissue stability assay; assay type: in vitro ADME; conditions: brain homogenate in Tris-HCl buffer
Method: The quantitative HPLC analyses were acquired using Waters Alliance e2695 separations module (Waters, Milford, CT, USA) containing 2998 photodiode array (PDA), a detector (Waters, Milford, CT, USA), and the SpeedROD RP-18e 50–4.6 mm column (Merck, KGaA, Darmstadt, Germany). The temperature of the column was preserved at 30 °C. […] Each sample was injected at a volume of 10 μL in triplicate. […] The stock solutions were mixed with methanol and diluted, resulting in various solutions with concentrations ranging from 1.0 to 0.125 μg/mL. These solutions were then utilized to generate calibration curves by plotting AUC versus concentration in μg/mL. The examined molecules (2 mg) were dissolved in 1 mL of Dulbecco’s phosphate buffered saline (DPBS). The mixture was then continuously agitated at 22 °C for 24 h using a thermoshaker. Following this period, the mixtures were filtered through a cellulose acetate syringe filter (with a pore size of 0.22 μm), moved to a chromatographic vial, and analyzed. To quantify the investigated compounds, the areas beneath their respective peaks on DAD chromatograms were employed. Solubility was calculated using the calibration curves. Chemical stability assay: Stock solution of 16 in DMSO (10 mg/mL) was used. Next, 25 μL of stock solution was mixed with 975 μL of PBS (Dulbecco’s phosphate-buffered saline, Sigma, Poland). […] HPLC analyses were used to quantify the percentage of molecules that remained at each time point relative to the 0 min time point. Brain tissue stability assay: […] Then, 50 μL of the stock solution was combined with 50 μL of ice-cold 50 mM Tris-HCl buffer (pH 7.4) and 150 μL of brain homogenate (suspended in 20 volumes of 50 mM Tris-HCl buffer, ice cold, pH 7.4). The mix was then incubated at 37 °C and quenched at several time points. To terminate the reaction mixture, 250 μL of the appropriate reaction mixture was mixed with 1000 μL of MeCM in the Eppendorf Tube. Following 10 min of shaking (1500 rpm), samples were centrifuged (10 000 rpm, 10 min, 4 °C) and the acquired supernatant was collected. Before conducting HPLC analysis, the supernatant was filtered via a cellulose acetate syringe filter with a pore size of 0.45 μm and then transferred to a chromatographic vial. HPLC analysis was used to determine the percentage of the tested molecule remaining at each time point, relative to the 0 min time point. Plasma stability assay was performed as described previously.[45] Frozen rat plasma (Wistar) was thawed. […] The samples were collected at relative time points. The reaction was terminated by adding 1200 of μL acetonitrile/methanol mixture (50:50, v/v). The samples were centrifuge at 25 000 rpm for 10 min. HPLC analysis was used to determine the percentage of the tested molecule remaining at each time point relative to the 0 min time point. All the experiments were performed in duplicate.

[2] = Hepatotoxicity assay, HepG2 cell viability (PrestoBlue, ToxiLight); assay type: cell-based, human; conditions: human, HepG2 cells, 24 h, read-out: viability of cells, MEAN (percentage of control, live cells)
Method: (§1) Hepatotoxiticy assay was conducted according to our previously described procedures.[42]Cell culture and treatment: The human hepatocellular carcinoma (HepG2) cell line was acquired from ATCC, Manassas, USA (HB-8065), and maintained according to the manufacturer’s ATCC protocol. Cell culture conditions included a medium consisting of Dulbecco’s modified Eagle’s medium (DMEM, Merck), 10% fetal bovine serum, […], 100 IU/mL penicillin (acquired from ThermoFisher), humidified atmosphere containing 5% of carbon dioxide, temperature of 37 °C. The stock solution of the tested compound was prepared in DMSO (10 mM) and next diluted with buffered phosphate saline (PBS, Merck). Cell membrane damage was examined with the use of a ToxiLight bioassay (Lonza), rendering the manufacturer’s protocol described previously.[42] A culture medium containing 10% Triton X-100 (Merck) was used as the positive control of cell damage, while the negative control contained solely vehicle. After incubating for 5 min, the luminescence was examined with the plate reader POLARstar Omega (BMG Labtech). The results were expressed as a percentage of the positive control, which was defined as the percentage of dead cells relative to the control sample. Cell viability assay: The viability of cells was examined with the use of the PrestoBlue reagent (ThermoFisher) and protocol provided by the manufacturer. After incubating for 24 h with the examined compounds, one-tenth of the remaining medium volume was mixed with the reagent (PrestoBlue) in a microplate well. Following incubation at 37 °C during 15 min, the fluorescence (EX 530; EM 580 nm) was measured using the plate reader POLARstar Omega, (BMG Labtech). The viability values obtained are presented as a percentage of live cells relative to the DMSO (control sample). The GraphPad program was used to perform the statistical analysis. The mean values with their corresponding coefficient of variation (CV) were reported for all data. The differences between the groups were analyzed using one-way analysis of variance (ANOVA) followed by Dunnett’s multiple comparison tests as post hoc analysis. The statistical significance: p < 0.05.

HepG2 cells = experiment: as above; assay type: cell-based, human; conditions: concentrations up to 50 μM; viability assay and ToxiLight
Method: as §1

5-HT6 receptor = 5-HT6 receptor (Homo sapiens, UniProt P50406); experiment: Radioligand binding assay for 5-HT6 receptor ([3H]-LSD displacement); set-up: expressed in transfected cells; host or cells: HEK-293 (cryopreserved membranes); conditions: competitive replacement of [3H]-LSD; ±S.E.M.; read-out: 5-HT6R Ki
Method: To determine the affinity for 5-HT6, the cryopreserved membranes from HEK-293 cells stably transfected with the human recombinant 5-HT6 receptor were used.[40] Preparation of the tested compounds included preparation of stock solutions in DMSO (1 mM) and subsequent serial dilutions (10^–10–10^–5 M) of tested compounds in the appropriate buffer (50 mM Tris buffer, pH 7.4, 10 mM MgCl2, 0.5 mM ethylenediaminetetraacetic acid). The serial dilutions were acquired directly on a 96-well microplate. The reaction mix included 50 μL of appropriate concentration of tested molecule, 50 μL of [^3H]LSD 2.5/2.0 nM, and 150 μL of diluted membranes. The microplate containing the reaction mix was protected with a sealing tape and incubated for 60 min at 37 °C. Quenching of the reaction mixtire included: rapid filtration through UniFilter 96 GF/B filter microplate and rapid washes using 200 μL 50 mM assay buffer and vacuum manifold and 96-well pipettor. The collected microplates were dried overnight at 37 °C. The UniFilter bottoms were sealed, and then 30 μL of Betaplate Scint liquid scintillator (PerkinElmer) was added to each well. […] The obtained data were fit to a one-site curve-fitting equation using Prism 5 software (GraphPad Software), and the Ki values were determined using the Cheng–Prusoff equation. Radioligand binding was performed in duplicates.

Sequence of 5-HT6 receptor (P50406 whole entry): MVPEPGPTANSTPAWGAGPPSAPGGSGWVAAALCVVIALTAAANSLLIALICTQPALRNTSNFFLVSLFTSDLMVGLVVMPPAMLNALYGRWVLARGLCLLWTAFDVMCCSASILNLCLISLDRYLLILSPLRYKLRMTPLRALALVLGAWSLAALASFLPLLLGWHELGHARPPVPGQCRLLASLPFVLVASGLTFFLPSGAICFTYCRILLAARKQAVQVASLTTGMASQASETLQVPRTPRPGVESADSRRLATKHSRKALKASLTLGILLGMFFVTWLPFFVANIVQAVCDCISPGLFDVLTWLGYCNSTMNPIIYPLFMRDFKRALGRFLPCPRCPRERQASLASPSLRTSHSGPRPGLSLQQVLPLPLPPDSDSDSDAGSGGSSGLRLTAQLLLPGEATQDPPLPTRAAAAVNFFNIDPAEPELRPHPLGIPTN

For `Cc1c(OCc2ccccc2)cccc1N1CCN(CCOC(=O)CCCN)CC1.Cl.Cl` [Compound 16, 1-(2-((4-Ammoniobutanoyl)oxy)ethyl)-4-(3-(benzyloxy)-2-methylphenyl)piperazin-1-ium Dichloride], the “% compound remaining (brain homogenate)” value ([1]; 0 min) was 100 ± 0.3%, the “% compound remaining (brain homogenate)” value ([1]; 15 min) was 97.81 ± 2.1% and the “% compound remaining (brain homogenate)” value ([1]; 30 min) was 92.56 ± 1.9%. The “% compound remaining (brain homogenate)” value ([1]; 60 min) was 87.12 ± 3.2%, the “% compound remaining (brain homogenate)” value ([1]; 120 min) was 49.73 ± 2.4% and the “% compound remaining (brain homogenate)” value ([1]; 240 min) was 25.34 ± 1.6%. For the same compound, the viability at 24 h, 1 µM ([2]; HepG2, 1 µM) was 102%, the viability at 24 h, 10 µM ([2]; HepG2, 10 µM) was 104% and the viability at 24 h, 50 µM ([2]; HepG2, 50 µM) was 102%. For the same compound, the viability at 24 h, 100 µM ([2]; HepG2, 100 µM) was 14%, the “reduction of HepG2 viability” value (HepG2 cells) was “not significant reduction of viability” and the Ki (5-HT6 receptor) was 16 ± 0.4 nM.
